Here are results for eleven compounds from patent US4146631A, “Benzamide derivatives” (May & Baker Limited, priority 1976, dated 1979).

Data set [1] can be described thus: Acute oral toxicity in mice. The conditions noted are these: mouse, in vivo, highest dose used 1000 mg/kg, read-out: LD50 (doses lethal to 50% of mice tested). The text has this:
Mice were each treated orally with one of the compounds of formula I, and they were observed daily until there had been at least 3 consecutive days without any deaths. The LD50 figures obtained (doses lethal to 50% of mice tested) are shown below in Table IV, expressed in mg/kg animal body weight.
The symbol ">" means "greater than" in this specification. Where the LD50 is said to be ">1000," a more precise estimation of the LD50 was not possible because the numbers of deaths was too small, even at the highest dose used, 1000 mg/kg.

Data set [2] is described as follows: Acute intravenous toxicity in mice. The conditions noted are these: mouse, in vivo, triethanolamine salt (T). The text has this: Mice were each treated intravenously with an aqueous solution of the triethanolamine salt or sodium salt of one of the compounds of formula I, and they were observed until there had been at least 3 consecutive days without any deaths. The LD50 figures obtained (doses lethal to 50% of mice tested) are shown below in Table V, expressed in mg/kg animal body weight. In Table V, "Na" means that the sodium salt was used and "T" means that the triethanolamine salt was used.
The aqueous solutions were prepared as follows:
A mixture of the test compound and water was treated gradually with triethanolamine until complete solution occurred. The solution was then diluted with water to a concentration of test compound of either 1% w/v or 2% w/v.
The test compound was dissolved in aqueous sodium hydroxide (1N) and the solution was brought to pH 8 by treatment with hydrochloric acid. The solution was then diluted with water to a concentration of test compound of 2% w/v.
Various volumes of these solutions were then administered to the mice.

In data set [3] the test system is passive cutaneous anaphylactic (PCA) reaction. In words: Passive cutaneous anaphylactic (PCA) reaction, reagin-allergen combination, in rats. Format: in vivo. Particulars: Rattus norvegicus; for ED100: intravenous, just before injection of allergen, read-out: ED100 (intravenous dose which produces 100% inhibition of the PCA reaction); for inhibition in vivo at 100 mg/kg: oral dose of 100 mg/kg; for inhibition in vivo at 100 mg/kg / ED50: thirty minutes before intravenous allergen; for ED50: oral, read-out: ED50 (oral dose which produces 50% inhibition of the PCA reaction). The text has this:
In pharmacological tests the benzamide derivatives of general formula I suppress the passive cutaneous anaphylactic (PCA) reaction resulting from combination of tissue-fixed reaginic antibodies with the appropriate antigenic material (termed reagin-allergen combination) and carried out in an essentially similar manner to that described by Ogilvie [Nature (Lond.), (1964), 204, 91-92; Immunology, (1967), 12, 112-131]. In the method used to test these compounds sera were obtained from rats which had been infected with larvae of the nematode parasite Nippostrongylus brasiliensis; as a result of the parasitic infestation reaginic antibodies are elaborated in the host mammal and are found in sera removed from such animals. Other, non-infected, rats received intradermal injections of appropriate dilutions of such sera and were then given the allergenic material along with Evans' blue dye intravenously forty-eight hours later.
The allergenic material consisted of supernatant fluid after centrifugation of homogenates of adult Nippostrongylus brasiliensis worms which had been macerated in Tyrode's solution. The sites of PCA reactions were visualised by the effusion of Evan's blue dye from the circulation into those areas as a result of increased capillary permeability caused by the release of biologically-active substances from cells where reagin-allergen combination had occurred. The new compounds when given intravenously to the rats just before injection of allergen, or administered orally thirty minutes before intravenous injection of allergen, were able to prevent the development of the PCA reaction, as shown below in Table I, Table II and Table III.

Where [4] appears, read: 1% w/v solution for lower doses, 2% w/v for higher doses.

The LD50 is the dose at which mortality reaches 50%. As usually defined, the inhibition in vivo is the drop in the measured response relative to a control, in per cent. What is called ED50 is the dose that gives a 50% effect, or the effect in half of the subjects. In the case of `O=C(Nc1nnn[nH]1)c1cccc(Br)c1O` [Compound AL, 3-bromo-2-hydroxy-N-(tetrazol-5-yl)benzamide], in data set [1], the 50% lethal dose (LD50) was 794 mg/kg. In addition, the LD50 in data set [2] (2% w/v test solution) stood at 540 mg/kg. Besides, in data set [3], the ED100 was determined as 10 mg/kg, the inhibition in vivo at 100 mg/kg was 69% and the ED50 came to 55 mg/kg.
Turning to `CCCOc1cccc(C(=O)Nc2nnn[nH]2)c1O` [Compound AN, 2-hydroxy-3-propoxy-N-(tetrazol-5-yl)benzamide], the LD50 in data set [1] was over 1000 mg/kg. Further, the LD50 in data set [2] (2% w/v test solution) came to 480 mg/kg. Moreover, in data set [3], the ED100 was found to be 0.5 mg/kg, the inhibition in vivo at 100 mg/kg stood at 87% and the median effective dose (ED50) came out at 40 mg/kg.
In the case of `CC(=O)c1cc(Cl)cc(C(=O)Nc2nnn[nH]2)c1O` [Compound AU, 3-acetyl-5-chloro-2-hydroxy-N-(tetrazol-5-yl)benzamide], the median lethal dose (LD50) in data set [1] was over 1000 mg/kg. For the same compound, in data set [2] (2% w/v test solution), the LD50 turned out to be 245 mg/kg. In addition, in data set [3], the ED100 was found to be 2 mg/kg, the inhibition in vivo at 100 mg/kg amounted to 71% and the ED50 stood at 1.8 mg/kg.
Turning to `CC(=O)c1ccc(O)c(C(=O)Nc2nnn[nH]2)c1` [Compound AV, 5-acetyl-2-hydroxy-N-(tetrazol-5-yl)benzamide], the median lethal dose (LD50) in data set [1] was over 1000 mg/kg. In data set [2] (2% w/v test solution), the LD50 was found to be 645 mg/kg. Further, in data set [3], the ED100 was determined as 10 mg/kg and the inhibition in vivo at 100 mg/kg stood at 16%.
With `COc1cccc(C(=O)Nc2nnn[nH]2)c1O` [Compound BE, 2-hydroxy-3-methoxy-N-(tetrazol-5-yl)benzamide], the LD50 in data set [1] was over 1000 mg/kg. The LD50 in data set [2] (2% w/v test solution) stood at 580 mg/kg. For the same compound, in data set [3], the ED100 is 0.2 mg/kg, the inhibition in vivo at 100 mg/kg worked out at 62% and the ED50 was found to be 18 mg/kg.
`O=C(Nc1nnn[nH]1)c1cc(F)ccc1O` [Compound BH, 5-fluoro-2-hydroxy-N-(tetrazol-5-yl)benzamide]: the LD50 in data set [1] was over 1000 mg/kg. The LD50 in data set [2] (setting [4]) was 500 mg/kg. For the same compound, in data set [3], the ED100 came to 1 mg/kg, the inhibition in vivo at 100 mg/kg amounted to 94% and the median effective dose (ED50) was determined as 16 mg/kg.
For the compound `CCC(C)c1cc(C(C)=O)c(O)c(C(=O)Nc2nnn[nH]2)c1` (stereo not shown) [Compound BY, 3-acetyl-5-sec-butyl-2-hydroxy-N-(tetrazol-5-yl)benzamide], the LD50 in data set [1] is over 1000 mg/kg. Besides, the LD50 in data set [2] (2% w/v test solution) amounted to 180 mg/kg. In data set [3], the ED100 was determined as 0.5 mg/kg, the inhibition in vivo at 100 mg/kg was 43% and the ED50 worked out at 1.8 mg/kg.
The corresponding values for `CC(=O)c1cc(C(C)(C)C)cc(C(=O)Nc2nnn[nH]2)c1O` [Compound BZ, 3-acetyl-5-tert-butyl-2-hydroxy-N-(tetrazol-5-yl)benzamide] are over 1000 mg/kg, 240 mg/kg, 0.5 mg/kg, 59% and 2.6 mg/kg.
In the case of `CCCc1cc(C(C)=O)c(O)c(C(=O)Nc2nnn[nH]2)c1` [Compound CD, 3-acetyl-2-hydroxy-5-propyl-N-(tetrazol-5-yl)benzamide], the LD50 is over 1000 mg/kg in data set [1] and 250 mg/kg in data set [2] (2% w/v test solution). Also, the ED100 in data set [3] was 0.1 mg/kg. Also, the inhibition in vivo at 100 mg/kg in data set [3] stood at 64%.
On to `CCCC(=O)c1cc(CC)cc(C(=O)Nc2nnn[nH]2)c1O` [Compound CG, 3-butyryl-5-ethyl-2-hydroxy-N-(tetrazol-5-yl)benzamide], for which the LD50 in data set [1] is over 1000 mg/kg. Moreover, the LD50 in data set [2] (setting [4]) was 270 mg/kg. Besides, in data set [3], the ED100 was 0.1 mg/kg, the inhibition in vivo at 100 mg/kg was 55% and the ED50 turned out to be 2.2 mg/kg.
With `CC(=O)c1cc([N+](=O)[O-])cc(C(=O)Nc2nnn[nH]2)c1O` [Compound CS, 3acetyl-2-hydroxy-5-nitro-N-(tetrazol-5-yl)benzamide], the LD50 in data set [1] was over 1000 mg/kg. In addition, in data set [2] (2% w/v test solution), the LD50 is 780 mg/kg. For the same compound, in data set [3], the ED100 stood at 0.1 mg/kg and the inhibition in vivo at 100 mg/kg came out at 54%.
